Laboratory results from paper PMC10974317, “Anti-COVID Drugs (MMV COVID Box) as Leishmanicidal Agents: Unveiling New Therapeutic Horizons” (Pharmaceuticals, 2024).
Read-outs that look alike come from different tables or passages of the source.

Tests used:
[1] = tested on: L. amazonensis intracellular amastigotes; assay: Intracellular amastigote activity (parasite rescue and transformation assay); format: cell-based, Leishmania amazonensis; details: for Selectivity index (CC50/IC50): CC50 murine macrophages / IC50 L. amazonensis amastigotes
Experimental: Intracellular amastigote activity against L. amazonensis was measured through a parasite rescue and transformation assay for the purchased compounds. Macrophages were seeded in a 96-well plate and infected with promastigotes at the metacyclic stage for subsequent compound treatment. After incubation, macrophages were lysed, and the medium and conditions were changed to stimulate amastigote transformation. The results were assessed using alamarBlue® [28].

[2] = tested on: Leishmania amazonensis promastigotes; assay: Leishmanicidal activity against promastigotes (alamarBlue assay); format: cell-based; details: 72 h, mean ± SD, read-out: inhibitory concentration 50 (IC50), promastigote stage, L. amazonensis
Experimental: (§1) Initial screening of the 160 compounds against Leishmania promastigotes was performed at 10 μM following MMV foundation instructions provided with the box. The compound activity was assessed using the modified alamarBlue® assay (Invitrogen/Life Technologies, Madrid, Spain) with 10^6 promastigotes per well. DMSO concentration never surpassed 0.1% (v/v) to avoid impacting parasite proliferation or morphology. Subsequently, an EnSpire multimode plate reader (PerkinElmer, MA, USA) was used to measure fluorescence after 72 h. […] Serial dilutions were made in 96-well plates and incubated with parasites for 72 h after adding alamarBlue®. IC50 values were calculated using SigmaPlot 14.0 (Systat Software Inc., Chicago, IL, USA) based on fluorescence measurements. Each concentration was tested in duplicate across three independent experiments.

[3] = tested on: Leishmania donovani promastigotes; assay: as above; format: cell-based; details: 72 h; for IC50: Leishmania donovani, read-out: inhibitory concentration 50 (IC50), promastigote stage, L. donovani
Experimental: as §1

[4] = tested on: Leishmania amazonensis promastigotes; assay: Mitochondrial membrane potential disruption (JC-1); format: cell-based; details: 24 h with IC90, vs negative control
Experimental: JC-1 Mitochondrial Membrane Potential kit (Cayman Chemical, Ann Arbor, MI, USA) was employed following the manufacturer’s instructions. […] Three independent experiments were conducted for this assay.

[5] = Leishmania amazonensis, Macrophage, in Mus musculus, intracellular amastigotes in murine macrophages, read-out: IC50, amastigote stage, L. amazonensis
[6] = promastigotes, alamarBlue, mean ± SD, w/a: without activity

SMILES	Selectivity index (CC50/IC50) [1]	IC50 [1, 5] [nM]	IC50 ([2]; Leishmania amazonensis) [nM]	IC50 [3, 6] [nM]	change in mitochondrial membrane potential (ΔΨm) [4]	IC50 [2] [nM]	also measured
CC(C)N1CCN(c2ccc(OCC3COC(Cn4cncn4)(c4ccc(Cl)cc4Cl)O3)cc2)CC1 (stereo not drawn) [Terconazole]	19	< 2400	3820 ± 1040	11600 ± 1380	significant decrease	–	IC50 ([1]; intracellular amastigotes in murine macrophages, read-out: IC50, amastigote stage, L. amazonensis): 2380 ± 400 nM
CO[C@@H]1[C@H](N(C)C(=O)c2ccccc2)C[C@H]2O[C@]1(C)n1c3ccccc3c3c4c(c5c6ccccc6n2c5c31)C(=O)NC4 [Midostaurin]	–	–	–	–	–	–	activity against the amastigote form ([1]; at 10 μM): no activity
CCCCCCCCCCCCCCCCOP(=O)([O-])OCC[N+](C)(C)C [Miltefosine]	23	–	–	–	–	–	IC50 [3]: 72200 ± 3060 nM
C=CCNc1nc(NCC=C)nc(N2CCN(C(c3ccc(F)cc3)c3ccc(F)cc3)CC2)n1 [Almitrine]	–	< 2400	< 1400	–	significant decrease	1190 ± 20	IC50 ([1]; read-out: IC50, amastigote stage, L. amazonensis, intracellular amastigotes in murine macrophages): 2180 ± 470 nM; inhibitory concentration 50 (IC50), promastigote stage, L. donovani [3, 6]: w/a at 100
C[C@@H]1CCCN1CCc1cc2cc(-c3ccc(C#N)cc3)ccc2o1 [ABT239]	46	490 ± 130	< 1400	1680 ± 250	–	1310 ± 70	–
CC(C)C[C@H](NC(=O)[C@H](Cc1ccccc1)NC(=O)c1cnccn1)B(O)O [Bortezomib]	–	–	420 ± 80	37200 ± 2510	significant decrease	–	IC50 ([1]; Leishmania amazonensis, Macrophage, in Mus musculus, read-out: IC50, amastigote stage, L. amazonensis, intracellular amastigotes in murine macrophages): 40 ± 10 nM
